Experimental data published in US20240141375A1, “LENTIVIRUS FOR GENERATING CELLS EXPRESSING ANTI-CD19 CHIMERIC ANTIGEN RECEPTOR” (Umoja Biopharma, Inc., priority 2021, published 2024).

Key:
Nalm-6 GFP FFLUC cells = experiment: Nalm-6 systemic tumor model in PBMC-humanized mice; design: species or system MHC I/II KO NSG female mice; settings: mouse, in vivo
Procedure: The aim of this study is to evaluate the efficacy of UB-VV100 and the effects of rapamycin dosing after UB-VV100 administration in a Nalm-6 systemic tumor model in PBMC-humanized mice. The UB-VV100 Viral particles comprised SEQ ID NOs: 121, 128, 131, and 132.
Lentivirus was prepared using adherent production and tiered on 293T cells by flow cytometry. Nalm-6 GFP FFLUC cells expressing luciferase and GFP were obtained from the Jensen lab, SCRI, cultured by Umoja Biopharma, and delivered in PBS for injection.
24 MHC I/II KO NSG female mice were used in the study. On study day −5 (D-5) mice were implanted with 0.5 million Nalm-6 cells via retroorbital injection.
At study day −1 mice where humanized with 10 million PBMC via IP injection. The same day all mice were imaged with an IVIS imager 15 minutes after d-Luciferin injection (15 mg/kg) to detect Nalm-6 disease burden. All mice from each tumor group were randomized according to their tumor bioluminescence (Total Flux) levels into 4 cohorts according to the Table 8 below.
At study day 0 mice from groups 3 and 4 were treated IP with 20 million viral particles of UB-VV100 in 500 ul of PBS. […]
Percentage of body weight loss was monitored during the study (FIG. 34B). […] Bone marrow, spleen, peripheral blood and tumor were collected, processed into a single cell suspension, and analyzed by flow cytometry.

Bead-activated PBMCs = experiment: Payload gene order: 2A detection, rapamycin enrichment and expansion of CAR-T cells; type: cell-based; settings: by day 22; 10 nM rapamycin
Procedure: The aim of this study was to determine the effect of order on the detectability and function of a lentiviral payload comprised of the following functional elements: Frb-RACR, and αCD19-CAR. The Frb-RACR element provides a selective advantage to cells when rapamycin is added to the culture. The αCD19-CAR element provides targeting of T cells to CD19+ target cells. The two elements together create CAR-T cells that enrich with rapamycin and are cytotoxic to CD19+ target cells. Two payload designs evaluated differ only in the order in which elements are expressed in the polycistronic transcript. This study tested functional aspects of the payloads in both orientations to see if differences in expression were affecting 1) payload detection by flow cytometry (2A antibody), 2) CAR-T cell rapamycin response, and 3) CAR-T cell CD19+ cell cytotoxicity.
Two payload designs evaluated: • 1. MND promoter—FRB-P2A-RACRβ-P2A-RACRγ-P2A-CAR (SEQ ID NO: 81) • 2. MND promoter—CAR-P2A-FRB-P2A-RACRβ-P2A-RACRγ (SEQ ID NO: 61)
Expansion of CAR-T cells was measured using cell counts, culture volume, and flow cytometry population frequencies to estimate total CAR-T cells. Gating requirements were different for d15 and 22; however, in each case, un-transduced cells were used as a biological negative control. […]

unstimulated human PBMCs = experiment: T cell activation (CD25) in PBMCs after vector addition, flow cytometry; type: cell-based; settings: 4 days after transduction; VT103 mCherry vectors 5 ul or 25 ul; Blinatumomab 1 ng/ml
Procedure: PBMCs were thawed, resuspended into 10 ml RPMI complete media, and the PBMCs were diluted to 1e6 cells/ml in complete RPMI media. IL-2 was added to a final concentration of 50U/ml. PBMCs were separated into 3× groups of 15 ml each for various stimulations: • Group #1—Blinatumomab added to a final concentration of 1 ng/ml • Group #2-15e6 αCD3/αCD28 Dynabeads added • Group #3—IL-2 only
For each group, 5 ml of stimulation solution was added to 3× wells of Non-TC treated 6 well plate and incubated at 37° C. for 48 hours. Beads were removed from applicable wells, cells were counted and pelleted. Cells were then resuspended in fresh complete RPMI media at 1e6 cells/ml with IL-2 at a final concentration of 50U/ml. 1 ml (1e6 cells) was added to the wells of a Non TC-treated 12 well plate. […]
After 4 days, cells were resuspended with 200 ul into wells in a 96 well V-bottom plate. […] Cells were resuspended in 50 ul of surface antibody cocktail (Anti-CD3-PerCP, Anti-CD19-FITC, Anti-CD56-APC, and Anti-CD25-BV421), incubated for 20 min at 4° C., washed in 200 ul FACS buffer, and resuspended in 100 ul FACS buffer and analyzed by flow cytometry. […]
(§1) Each group was incubated at 37° C. overnight. Beads were removed from applicable wells, cells were counted and pelleted. […]
as §1

| Molecule | survival (Nalm-6 GFP FFLUC cells) [study day] | expansion of αCD19-CAR-T cells over non-rapamycin treated cells (Bead-activated PBMCs) [fold] | CD25 expression on T cells (activation) (unstimulated human PBMCs) |
| --- | --- | --- | --- |
| CO[C@H]1C[C@@H]2CC[C@@H](C)[C@@](O)(O2)C(=O)C(=O)N2CCCC[C@H]2C(=O)O[C@H]([C@H](C)C[C@@H]2CC[C@@H](O)[C@H](OC)C2)CC(=O)[C@H](C)/C=C(\C)[C@@H](O)[C@@H](OC)C(=O)[C@H](C)C[C@H](C)/C=C/C=C/C=C/1C [rapamycin] | ≤ 20 | 4.3 |  |
| Blinatumomab: Bispecific T-cell engager with anti-CD3 moiety, used as PBMC stimulus |  |  | potently activated the T cells |
